From US11168364B2, “Method and system for sequencing nucleic acids” (priority 2016, dated 2021)

Target: T1, Bsu DNA polymerase large fragment / primed template nucleic acid (Bacillus subtilis, UniProt O34996)
T1 construct: 350 U/ml Bsu DNA polymerase large fragment
T1 sequence (O34996 297-880 limits assumed): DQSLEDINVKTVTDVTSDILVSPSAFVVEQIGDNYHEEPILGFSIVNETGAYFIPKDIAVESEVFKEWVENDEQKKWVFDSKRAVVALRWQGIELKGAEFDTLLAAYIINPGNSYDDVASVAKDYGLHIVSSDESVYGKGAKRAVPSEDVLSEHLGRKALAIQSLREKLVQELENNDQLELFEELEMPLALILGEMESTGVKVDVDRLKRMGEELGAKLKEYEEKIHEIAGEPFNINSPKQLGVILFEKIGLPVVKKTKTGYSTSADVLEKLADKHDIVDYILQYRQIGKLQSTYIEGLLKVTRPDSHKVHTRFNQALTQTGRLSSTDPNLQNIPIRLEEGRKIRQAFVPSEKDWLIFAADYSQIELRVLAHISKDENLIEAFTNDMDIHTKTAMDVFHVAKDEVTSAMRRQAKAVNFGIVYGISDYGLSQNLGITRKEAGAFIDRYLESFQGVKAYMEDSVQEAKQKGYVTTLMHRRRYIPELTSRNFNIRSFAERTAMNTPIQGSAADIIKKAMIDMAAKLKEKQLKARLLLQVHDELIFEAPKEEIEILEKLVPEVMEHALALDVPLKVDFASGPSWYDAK
Experiment: Biolayer interferometry of polymerase binding to immobilized primed template with cognate or non-cognate nucleotide, salt titration (Example 19)
Conditions: for Ternary Complex Signal (Δλ, nm): dCTP (cognate); for Binary Complex Signal (Δλ, nm): dGTP (non-cognate)
Source text: A FORTEBIO® (Menlo Park, Calif.) OCTET® instrument employing biolayer interferometry to measure binding reactions at the surface of a fiber optic tip was used in a multiwell plate format to investigate differential stability of binary and ternary complexes. Template strands biotinylated at their 5′-ends were used to immobilize the primed template nucleic acid onto fiber optic tips functionalized with streptavidin (SA) according to standard procedures. […] Tips were first equilibrated in a Tris-buffered solution containing 30 mM Tris-HCl (pH 8.0), and 0.1 mM EDTA before commencing the cycling protocol. Independent binding reactions for the two test nucleotides (i.e., cognate and non-cognate nucleotides) were carried out in the presence of concentrations of NaCl, KCl, or potassium glutamate that varied from 50 mM to 500 mM. […] In all instances, the reaction mixture used during the examination step contained Tris-HCl (pH 8.0), 0.01% Tween-20, 100 μg/ml BSA, 2 mM NiSO4, 350 U/ml Bsu DNA polymerase large fragment; and one of the nucleotides at a concentration of 100 μM (dCTP was used as a cognate nucleotide, and dGTP was used as a non-cognate nucleotide). Following each examination step, tips were exposed to a buffer containing 30 mM Tris-HCl (pH 8.0), 500 mM KCl, 2 mM EDTA and 0.05% Tween-20 for 20 seconds to strip enzyme complexes from the primed template nucleic acid. The stripping step was followed by a 15 second exposure to examination buffer without enzyme, dNTP or divalent cations to regenerate tips for the next cycle of examination. When using a single contacting step to effect binding of polymerase and nucleotide to the primed template nucleic acid, the binding step was 45 seconds long, with binding interactions being monitored continuously. This was accomplished by contacting the primed template nucleic acid with a single solution that included the polymerase and test nucleotide. Results from interferometry monitoring were analyzed to identify formation of ternary complexes (i.e., identifying cognate nucleotide) or binary complexes (i.e., identifying non-cognate nucleotide).

[1] = KCl 50 mM + fixed 160 mM potassium glutamate
[2] = KCl 75 mM + fixed 160 mM potassium glutamate
[3] = KCl 100 mM + fixed 160 mM potassium glutamate
[4] = KCl 125 mM + fixed 160 mM potassium glutamate
[5] = KCl 150 mM + fixed 160 mM potassium glutamate
[6] = KCl 175 mM + fixed 160 mM potassium glutamate
[7] = KCl 200 mM + fixed 160 mM potassium glutamate
[8] = KCl 225 mM + fixed 160 mM potassium glutamate
[9] = KCl 250 mM + fixed 160 mM potassium glutamate
[10] = KCl 275 mM + fixed 160 mM potassium glutamate
[11] = KCl 300 mM + fixed 160 mM potassium glutamate
[12] = KCl 325 mM + fixed 160 mM potassium glutamate
[13] = KCl 350 mM + fixed 160 mM potassium glutamate
[14] = KCl 375 mM + fixed 160 mM potassium glutamate
[15] = KCl 400 mM + fixed 160 mM potassium glutamate
[16] = KCl 425 mM + fixed 160 mM potassium glutamate
[17] = KCl 450 mM + fixed 160 mM potassium glutamate
[18] = KCl 475 mM + fixed 160 mM potassium glutamate
[19] = KCl 500 mM + fixed 160 mM potassium glutamate

[Cl-].[K+] [KCl]
Fold Enhancement (Ternary/Binary) (KCl 50 mM): 1.03
Fold Enhancement (Ternary/Binary) [1]: 1.24
Ternary Complex Signal (Δλ, nm) [1]: 1.57 nm
Binary Complex Signal (Δλ, nm) [1]: 1.27 nm
Ternary Complex Signal (Δλ, nm) (KCl 50 mM): 2.98 nm
Binary Complex Signal (Δλ, nm) (KCl 50 mM): 2.90 nm
Fold Enhancement (Ternary/Binary) (KCl 75 mM): 0.97
Fold Enhancement (Ternary/Binary) [2]: 1.41
Ternary Complex Signal (Δλ, nm) [2]: 1.49 nm
Binary Complex Signal (Δλ, nm) [2]: 1.06 nm
Ternary Complex Signal (Δλ, nm) (KCl 75 mM): 2.59 nm
Binary Complex Signal (Δλ, nm) (KCl 75 mM): 2.68 nm
Fold Enhancement (Ternary/Binary) (KCl 100 mM): 1.00
Fold Enhancement (Ternary/Binary) [3]: 1.71
Ternary Complex Signal (Δλ, nm) [3]: 1.52 nm
Binary Complex Signal (Δλ, nm) [3]: 0.89 nm
Ternary Complex Signal (Δλ, nm) (KCl 100 mM): 2.29 nm
Binary Complex Signal (Δλ, nm) (KCl 100 mM): 2.29 nm
Fold Enhancement (Ternary/Binary) (KCl 125 mM): 0.98
Fold Enhancement (Ternary/Binary) [4]: 2.05
Ternary Complex Signal (Δλ, nm) [4]: 1.44 nm
Binary Complex Signal (Δλ, nm) [4]: 0.70 nm
Ternary Complex Signal (Δλ, nm) (KCl 125 mM): 1.93 nm
Binary Complex Signal (Δλ, nm) (KCl 125 mM): 1.98 nm
Fold Enhancement (Ternary/Binary) (KCl 150 mM): 1.00
Fold Enhancement (Ternary/Binary) [5]: 2.46
Ternary Complex Signal (Δλ, nm) [5]: 1.40 nm
Binary Complex Signal (Δλ, nm) [5]: 0.57 nm
Ternary Complex Signal (Δλ, nm) (KCl 150 mM): 1.67 nm
Binary Complex Signal (Δλ, nm) (KCl 150 mM): 1.67 nm
Fold Enhancement (Ternary/Binary) (KCl 175 mM): 0.99
Fold Enhancement (Ternary/Binary) [6]: 3.31
Ternary Complex Signal (Δλ, nm) [6]: 1.30 nm
Binary Complex Signal (Δλ, nm) [6]: 0.39 nm
Ternary Complex Signal (Δλ, nm) (KCl 175 mM): 1.41 nm
Binary Complex Signal (Δλ, nm) (KCl 175 mM): 1.43 nm
Fold Enhancement (Ternary/Binary) (KCl 200 mM): 1.08
Fold Enhancement (Ternary/Binary) [7]: 4.15
Ternary Complex Signal (Δλ, nm) [7]: 1.19 nm
Binary Complex Signal (Δλ, nm) [7]: 0.29 nm
Ternary Complex Signal (Δλ, nm) (KCl 200 mM): 1.30 nm
Binary Complex Signal (Δλ, nm) (KCl 200 mM): 1.20 nm
Fold Enhancement (Ternary/Binary) (KCl 225 mM): 1.17
Fold Enhancement (Ternary/Binary) [8]: 5.35
Ternary Complex Signal (Δλ, nm) [8]: 1.12 nm
Binary Complex Signal (Δλ, nm) [8]: 0.21 nm
Ternary Complex Signal (Δλ, nm) (KCl 225 mM): 1.20 nm
Binary Complex Signal (Δλ, nm) (KCl 225 mM): 1.03 nm
Fold Enhancement (Ternary/Binary) (KCl 250 mM): 1.35
Fold Enhancement (Ternary/Binary) [9]: 7.02
Ternary Complex Signal (Δλ, nm) [9]: 0.98 nm
Binary Complex Signal (Δλ, nm) [9]: 0.14 nm
Ternary Complex Signal (Δλ, nm) (KCl 250 mM): 1.11 nm
Binary Complex Signal (Δλ, nm) (KCl 250 mM): 0.82 nm
Fold Enhancement (Ternary/Binary) (KCl 275 mM): 1.51
Fold Enhancement (Ternary/Binary) [10]: 9.07
Ternary Complex Signal (Δλ, nm) [10]: 0.88 nm
Binary Complex Signal (Δλ, nm) [10]: 0.10 nm
Ternary Complex Signal (Δλ, nm) (KCl 275 mM): 1.02 nm
Binary Complex Signal (Δλ, nm) (KCl 275 mM): 0.67 nm
Fold Enhancement (Ternary/Binary) (KCl 300 mM): 2.04
Fold Enhancement (Ternary/Binary) [11]: 8.34
Ternary Complex Signal (Δλ, nm) [11]: 0.76 nm
Binary Complex Signal (Δλ, nm) [11]: 0.09 nm
Ternary Complex Signal (Δλ, nm) (KCl 300 mM): 0.96 nm
Binary Complex Signal (Δλ, nm) (KCl 300 mM): 0.47 nm
Fold Enhancement (Ternary/Binary) (KCl 325 mM): 1.97
Fold Enhancement (Ternary/Binary) [12]: 8.97
Ternary Complex Signal (Δλ, nm) [12]: 0.65 nm
Binary Complex Signal (Δλ, nm) [12]: 0.07 nm
Ternary Complex Signal (Δλ, nm) (KCl 325 mM): 0.71 nm
Binary Complex Signal (Δλ, nm) (KCl 325 mM): 0.36 nm
Fold Enhancement (Ternary/Binary) (KCl 350 mM): 3.72
Fold Enhancement (Ternary/Binary) [13]: 7.94
Ternary Complex Signal (Δλ, nm) [13]: 0.54 nm
Binary Complex Signal (Δλ, nm) [13]: 0.07 nm
Ternary Complex Signal (Δλ, nm) (KCl 350 mM): 0.64 nm
Binary Complex Signal (Δλ, nm) (KCl 350 mM): 0.17 nm
Fold Enhancement (Ternary/Binary) (KCl 375 mM): 3.21
Fold Enhancement (Ternary/Binary) [14]: 12.46
Ternary Complex Signal (Δλ, nm) [14]: 0.45 nm
Binary Complex Signal (Δλ, nm) [14]: 0.04 nm
Ternary Complex Signal (Δλ, nm) (KCl 375 mM): 0.49 nm
Binary Complex Signal (Δλ, nm) (KCl 375 mM): 0.15 nm
Fold Enhancement (Ternary/Binary) (KCl 400 mM): 9.48
Fold Enhancement (Ternary/Binary) [15]: 13.75
Ternary Complex Signal (Δλ, nm) [15]: 0.37 nm
Binary Complex Signal (Δλ, nm) [15]: 0.03 nm
Ternary Complex Signal (Δλ, nm) (KCl 400 mM): 0.39 nm
Binary Complex Signal (Δλ, nm) (KCl 400 mM): 0.04 nm
Fold Enhancement (Ternary/Binary) (KCl 425 mM): 85.77
Fold Enhancement (Ternary/Binary) [16]: 13.28
Ternary Complex Signal (Δλ, nm) [16]: 0.31 nm
Binary Complex Signal (Δλ, nm) [16]: 0.02 nm
Ternary Complex Signal (Δλ, nm) (KCl 425 mM): 0.28 nm
Binary Complex Signal (Δλ, nm) (KCl 425 mM): 0.00 nm
Fold Enhancement (Ternary/Binary) (KCl 450 mM): 16.47
Fold Enhancement (Ternary/Binary) [17]: 7.24
Ternary Complex Signal (Δλ, nm) [17]: 0.25 nm
Binary Complex Signal (Δλ, nm) [17]: 0.03 nm
Ternary Complex Signal (Δλ, nm) (KCl 450 mM): 0.19 nm
Binary Complex Signal (Δλ, nm) (KCl 450 mM): 0.01 nm
Fold Enhancement (Ternary/Binary) (KCl 475 mM): 4.89
Fold Enhancement (Ternary/Binary) [18]: 4.54
Ternary Complex Signal (Δλ, nm) [18]: 0.22 nm
Binary Complex Signal (Δλ, nm) [18]: 0.05 nm
Ternary Complex Signal (Δλ, nm) (KCl 475 mM): 0.14 nm
Binary Complex Signal (Δλ, nm) (KCl 475 mM): 0.03 nm
Fold Enhancement (Ternary/Binary) (KCl 500 mM): 2.69
Fold Enhancement (Ternary/Binary) [19]: 2.97
Ternary Complex Signal (Δλ, nm) [19]: 0.21 nm
Binary Complex Signal (Δλ, nm) [19]: 0.07 nm
Ternary Complex Signal (Δλ, nm) (KCl 500 mM): 0.09 nm
Binary Complex Signal (Δλ, nm) (KCl 500 mM): 0.04 nm
salt concentration of maximum signal ratios for ternary over binary complexes (no glutamate salt): about 450 mM
